The source made the active and inactive calls.

Cytochrome P450 2C19, sequence (P33261 whole entry): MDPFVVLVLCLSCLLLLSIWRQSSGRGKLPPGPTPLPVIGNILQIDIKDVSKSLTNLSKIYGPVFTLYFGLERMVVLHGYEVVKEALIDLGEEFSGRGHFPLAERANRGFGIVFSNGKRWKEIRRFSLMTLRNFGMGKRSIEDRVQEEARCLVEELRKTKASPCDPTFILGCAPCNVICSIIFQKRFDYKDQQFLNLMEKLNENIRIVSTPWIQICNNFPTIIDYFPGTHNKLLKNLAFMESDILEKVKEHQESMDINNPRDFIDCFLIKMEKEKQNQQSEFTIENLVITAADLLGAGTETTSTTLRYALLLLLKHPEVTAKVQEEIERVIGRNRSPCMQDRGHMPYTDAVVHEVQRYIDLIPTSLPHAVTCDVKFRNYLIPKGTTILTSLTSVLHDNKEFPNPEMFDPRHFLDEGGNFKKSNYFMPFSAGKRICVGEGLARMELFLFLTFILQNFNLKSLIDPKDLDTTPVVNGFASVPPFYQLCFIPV
Cytochrome P450 2D6, sequence (P10635 whole entry): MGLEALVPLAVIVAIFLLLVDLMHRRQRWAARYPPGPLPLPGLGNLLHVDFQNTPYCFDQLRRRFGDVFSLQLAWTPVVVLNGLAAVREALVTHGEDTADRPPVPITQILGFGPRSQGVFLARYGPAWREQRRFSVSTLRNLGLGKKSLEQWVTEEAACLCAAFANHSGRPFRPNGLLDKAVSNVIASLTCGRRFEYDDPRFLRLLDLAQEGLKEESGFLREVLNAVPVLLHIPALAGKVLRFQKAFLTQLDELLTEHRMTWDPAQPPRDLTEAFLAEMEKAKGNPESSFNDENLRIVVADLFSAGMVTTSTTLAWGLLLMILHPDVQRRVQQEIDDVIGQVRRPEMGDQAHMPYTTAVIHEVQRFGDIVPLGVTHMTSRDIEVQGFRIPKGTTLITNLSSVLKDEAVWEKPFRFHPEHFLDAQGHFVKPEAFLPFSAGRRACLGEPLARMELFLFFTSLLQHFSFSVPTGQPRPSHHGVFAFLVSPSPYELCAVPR

The target in the first experiment is Cytochrome P450 2C9 (Homo sapiens, UniProt P11712).
Cytochrome P450 2C9, sequence (P11712 whole entry): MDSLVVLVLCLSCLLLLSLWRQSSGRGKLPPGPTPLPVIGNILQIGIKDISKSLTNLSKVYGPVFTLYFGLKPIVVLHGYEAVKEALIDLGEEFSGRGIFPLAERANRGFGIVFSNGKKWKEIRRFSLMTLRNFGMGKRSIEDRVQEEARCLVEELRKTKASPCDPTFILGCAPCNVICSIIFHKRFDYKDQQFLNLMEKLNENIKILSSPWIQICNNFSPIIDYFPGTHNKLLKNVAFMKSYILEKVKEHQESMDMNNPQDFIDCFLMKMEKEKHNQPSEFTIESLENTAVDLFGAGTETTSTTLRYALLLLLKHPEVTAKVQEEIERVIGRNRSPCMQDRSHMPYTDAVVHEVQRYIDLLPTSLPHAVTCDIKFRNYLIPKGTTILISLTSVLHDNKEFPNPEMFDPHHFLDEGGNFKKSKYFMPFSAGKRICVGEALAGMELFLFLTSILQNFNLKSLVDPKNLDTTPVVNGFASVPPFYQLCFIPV
Settings: not given
Turning to `Cc1cccc(Cn2cnc3c(NS(C)(=O)=O)c(C)c(C)cc32)c1`, the half-maximal activity concentration (AC50) is 1.26 µM (inconclusive).
For `Cc1noc(C)c1C(=O)N1CCC[C@@]2(CCN(c3ccccc3)C2)C1`, the AC50 is 20 µM (inconclusive).
The same measure, in the same setting: next, `c1ccc2c(c1)-c1nc3ccccc3cc1[C@H]2N1CCOCC1`: 6.31 µM (inconclusive).
For `COc1ccc(NC(=O)C(F)(F)F)cc1OC`, the half-maximal activity concentration (AC50) was 39.8 µM (inconclusive).
Same read-out and setting: to `Nc1nc2ccc(Cl)cc2c2nc(-c3ccco3)nn12` [CGS-15943] belongs 31.6 µM (inconclusive).

Tested on in a further experiment: not listed separately
Description: Luminescence Cell-Based Dose Response HTS to Identify Inhibitors of 5'UTR Stem-Loop Driven Prion Protein mRNA Translation in H4 Neuroglioblastoma Cells. [Related pubchem assays: 1827 (Project Summary), 1813 (Primary HTS)]. It is filed as functional.
Settings: not given
As to `Cc1ccc2nc(-c3ccc(NC(=O)COC(=O)c4ccc([N+](=O)[O-])o4)cc3)sc2c1`, the 50% effective concentration (EC50) is 10.9 µM (inconclusive).

For the next experiment, the system named is H4. Description: Luminescence Cell-Based Dose Response HTS to Identify Activators of 5'UTR Stem-Loop Driven Prion Protein mRNA Translation in H4 Neuroglioblastoma Cells. [Related pubchem assays: 1829 (Project Summary), 1814 (Primary HTS)]. Particulars: Homo sapiens. The format is functional.
Regarding `S=C(c1ccc(-c2ccc(Cl)cc2Cl)o1)N1CCCCC1`, the concentration for a half-maximal effect (EC50) is 1.97 µM (active).
On the same count and under the same terms, next, `COc1cc(/C=C2/C(=N)N3N=C(CC(=O)N4CCOCC4)SC3=NC2=O)ccc1OCc1ccccc1`: 14.5 µM (active); `Cc1csc(NC(=O)C2=COCCO2)n1`: > 120 µM (not active).
Still for that read-out and setting: next, `CC(=O)Nc1ccc(O)c(-c2nc3ccccc3s2)c1`: 22.5 µM (active).
On to `CC1CCN(C(S)=NCCc2ccccc2)CC1`, for which the EC50 was 31.3 µM (active).

Tested on in the next experiment: not listed separately
Kind of experiment: Luminescence Cell-Based Dose Response HTS to Identify Activators of Luciferase Translation or Activity in H4 […] Cells. [Related pubchem assays: 1829 (Project Summary), 1814 (Primary HTS)]. It is filed as functional.
Settings: not given
For `S=C(c1ccc(-c2ccc(Cl)cc2Cl)o1)N1CCCCC1`, the EC50 is 50 µM (active).
Still for that read-out and setting: next, `COc1cc(/C=C2/C(=N)N3N=C(CC(=O)N4CCOCC4)SC3=NC2=O)ccc1OCc1ccccc1`: 10.5 µM (active); `Cc1csc(NC(=O)C2=COCCO2)n1`: 3.11 µM (active).
The same measure, in the same setting: to `CC(=O)Nc1ccc(O)c(-c2nc3ccccc3s2)c1` belongs 21.2 µM (active).
Regarding `CC1CCN(C(S)=NCCc2ccccc2)CC1`, the EC50 was 0.102 µM (active).

The next experiment addresses Cytochrome P450 2D6 (Homo sapiens, UniProt P10635).
Settings: not given
`Cc1cccc(Cn2cnc3c(NS(C)(=O)=O)c(C)c(C)cc32)c1`: the half-maximal activity concentration (AC50) was 35.5 µM (inconclusive).
The same measure, in the same setting: to `Cc1noc(C)c1-c1ccc2ncnc(Nc3ccc(F)cc3)c2c1` belongs 39.8 µM (inconclusive); to `Cc1ccccc1CSc1nccn1-c1ccccc1`, 17.8 µM (inconclusive); to `COc1ccccc1-c1ccc2ncnc(N(C)C)c2c1`, 12.6 µM (inconclusive).
Same read-out and setting: to `CCn1c(SCc2nc3ccccc3[nH]2)nnc1-c1ccc(OC)cc1` belongs 20 µM (inconclusive); to `CN(C)C(=O)c1ccc(-c2ccc3ncnc(NCc4cccs4)c3c2)cc1`, 20 µM (inconclusive); to `CC1Cc2ccccc2N1C(=O)Cn1c(=O)cc(O)c2ccccc21` (centres undefined), 39.8 µM (inconclusive).
On to `CCOC(=O)c1c(-c2ccccc2)cn2ccccc12`, for which the AC50 is 3.16 µM (inconclusive).
Take `CNc1ncncc1-c1ccccc1C(F)(F)F`: the AC50 is 39.8 µM (inconclusive).
For the compound `CCOC(=O)C(/C=N/CC(=O)O)=C(\O)OCC`, the AC50 is 39.8 µM (inconclusive).
On the same count and under the same terms, to `Nc1nc2ccc(Cl)cc2c2nc(-c3ccco3)nn12` [CGS-15943] belongs 12.6 µM (inconclusive).

Another experiment has as its target T1, Cytochrome P450 1A2 (Homo sapiens, UniProt P05177).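 Also: PubChem cytochrome P450 panel assay, CYP1A2 panel member.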
T1 sequence (P05177 whole entry): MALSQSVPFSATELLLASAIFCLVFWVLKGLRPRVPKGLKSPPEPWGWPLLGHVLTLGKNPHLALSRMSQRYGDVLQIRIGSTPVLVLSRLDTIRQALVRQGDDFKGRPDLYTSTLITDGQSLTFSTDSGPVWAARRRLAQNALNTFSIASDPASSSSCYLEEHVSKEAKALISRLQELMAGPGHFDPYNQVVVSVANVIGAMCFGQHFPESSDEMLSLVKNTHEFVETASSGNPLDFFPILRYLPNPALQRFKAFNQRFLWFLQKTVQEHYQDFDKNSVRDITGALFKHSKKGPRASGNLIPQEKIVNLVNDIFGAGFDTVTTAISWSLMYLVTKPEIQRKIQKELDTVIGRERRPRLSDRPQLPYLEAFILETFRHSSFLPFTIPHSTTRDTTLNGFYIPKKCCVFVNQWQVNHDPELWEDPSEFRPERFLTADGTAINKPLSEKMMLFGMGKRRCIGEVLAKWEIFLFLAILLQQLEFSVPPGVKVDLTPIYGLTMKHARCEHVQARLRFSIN
Settings: not given
In the case of `Cc1noc(C)c1C(=O)N1CCC[C@@]2(CCN(c3ccccc3)C2)C1`, the concentration at half-maximal activity (AC50) was 25.1 µM (inconclusive).
Same read-out and setting: next, `CCCNC(=O)Nc1ccc2c(c1)nc(C)n2C`: 15.8 µM (inconclusive).
For `CC/C(O)=C(\C#N)c1nnc2n1CCCCC2`, the AC50 is 14.1 µM (inconclusive).

A further experiment has as its target Cytochrome P450 2C19 (Homo sapiens, UniProt P33261). Description: Cytochrome panel assay with activity outcomes. Panel member name: p450-cyp2c19 Compounds with AC50 equal or less than 10 uM are considered active. The format is functional.
Settings: not given
With `Cc1noc(C)c1C(=O)N1CCC[C@@]2(CCN(c3ccccc3)C2)C1`, the half-maximal activity concentration (AC50) was 25.1 µM (inconclusive).
Same read-out and setting: to `CCCNC(=O)Nc1ccc2c(c1)nc(C)n2C` belongs 0.562 µM (inconclusive); to `c1ccc(CCCNc2nnnc3ccccc23)cc1`, 3.16 µM (inconclusive); to `O=C(COC(=O)COc1ccccc1)Nc1ccc(OC(F)(F)F)cc1`, 39.8 µM (inconclusive).
Same read-out and setting: to `c1ccc2c(c1)-c1nc3ccccc3cc1[C@H]2N1CCOCC1` belongs 3.16 µM (inconclusive); to `CC1Cc2ccccc2N1C(=O)Cn1c(=O)cc(O)c2ccccc21` (centres undefined), 22.4 µM (inconclusive); to `COc1ccc2c(C)cc(N3CCOCC3)nc2c1`, 31.6 µM (inconclusive).
The same measure, in the same setting: next, `CNc1ncncc1-c1ccccc1C(F)(F)F`: 39.8 µM (inconclusive); `CC/C(O)=C(\C#N)c1nnc2n1CCCCC2`: 1 µM (inconclusive).
As for `c1ccc2c(NC3CC3)nc(-c3ccoc3)nc2c1`, the AC50 was 25.1 µM (inconclusive).
Still for that read-out and setting: next, `COc1ccc(NC(=O)C(F)(F)F)cc1OC`: 22.4 µM (inconclusive); `COC(=O)c1ccccc1NC(=O)c1ccc(F)cc1`: 25.1 µM (inconclusive).

Tested on in a further experiment: not listed separately
Kind of experiment: HEp-2 cell cytotoxicity, dose response, cytotoxicity control for RSV inhibitor project, HTS (AID 2410). The format is functional. Particulars: human respiratory syncytial virus.
As to `CCOC(=O)c1c(C)[nH]c(C2=NN=C(NC3CC3)SC2)c1C`, the CC50 was 28.1 µM (active).
The same measure, in the same setting: next, `CCOC(=O)C1=C(NC(=S)NC(=O)c2ccccc2)c2ccccc2CC1(C)CC` (centres undefined): 12.5 µM (active); `O=C(CN1c2ccccc2Sc2ccccc21)NNC(=O)Nc1ccc(Cl)cc1`: > 50 µM (active); `CCc1nn(C(C)C(=O)N2CCN(c3ccccc3)CC2)c(=O)c2cc3occc3n12` (centres undefined): 20.4 µM (active).
Still for that read-out and setting: next, `COc1ccc2nc(O)c(CNc3ccccc3)cc2c1`: 34.4 µM (active); `CCCOc1ccc(-c2n[nH]c(S)n2)cc1`: 25.1 µM (active); `CCOC(=O)N1CCN(c2nc(-c3cccs3)nc3ccccc23)CC1`: > 50 µM (active).
On to `COc1cccc(Nc2cc(C)c3ccccc3n2)c1`, for which the CC50 is 32 µM (active).
Still for that read-out and setting: next, `COc1ccc(NC(=O)C2C(c3ccccc3)C2(Cl)Cl)cc1` (centres undefined): 17.7 µM (active); `COc1ccc([C@H]2CC(=O)C=C(c3ccc(Cl)c(C(F)(F)F)c3)C2)cc1`: 12.9 µM (active).
With `C/C=C/c1ccc(OCC(=O)NCc2ccccc2OC)c(OC)c1`, the CC50 was 40.4 µM (active).
Still for that read-out and setting: to `Cn1c(CSc2nc3cc(Br)ccc3[nH]2)nc2ccccc21` belongs > 50 µM (active); to `CCO/C(O)=C1\C(C)=NC2=C(C(=O)CCC2)C1c1cn(Cc2ccc(Cl)cc2Cl)nc1-c1ccccc1` (centres undefined), 30.6 µM (active).

The target of a further experiment is T2, Heat shock factor protein 1 (Mus musculus, UniProt P38532).
T2 sequence (P38532 whole entry): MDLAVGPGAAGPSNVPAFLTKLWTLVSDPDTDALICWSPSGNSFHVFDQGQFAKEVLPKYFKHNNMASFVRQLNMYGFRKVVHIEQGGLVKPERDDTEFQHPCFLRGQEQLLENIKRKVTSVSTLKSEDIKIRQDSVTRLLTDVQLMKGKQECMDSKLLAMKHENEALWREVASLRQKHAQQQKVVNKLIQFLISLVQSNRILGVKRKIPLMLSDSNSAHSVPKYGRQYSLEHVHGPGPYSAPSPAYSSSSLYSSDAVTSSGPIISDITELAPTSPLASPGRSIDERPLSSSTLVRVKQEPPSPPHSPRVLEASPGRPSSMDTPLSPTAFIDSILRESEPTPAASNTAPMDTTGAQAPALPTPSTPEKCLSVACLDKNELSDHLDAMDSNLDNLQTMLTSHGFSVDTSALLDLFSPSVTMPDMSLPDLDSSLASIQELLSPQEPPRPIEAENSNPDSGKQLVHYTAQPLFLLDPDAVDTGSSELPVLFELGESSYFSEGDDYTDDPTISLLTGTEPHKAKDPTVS
Description: inhibition of MG132-induced HSE-luciferase signal, confirmation, cell-based, NIH3T3, luminescence, dose retest (AID 2382).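 Also: NIH3T3 fibroblasts with HSF1-driven luciferase reporter stressed by proteasome inhibitor MG132; luminescence from HSF1-driven luciferase expression after 8 hours of MG132 stress.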 It is filed as functional.
Settings: not given
Take `CC(C)NC(=O)COC(=O)C1CSC2(c3ccc(Br)cc3)CCC(=O)N12` (centres undefined): the EC50 was > 195 µM (not active).

A further experiment deals with Cytochrome P450 3A4 (Homo sapiens, UniProt P08684).
Cytochrome P450 3A4, sequence (P08684 whole entry): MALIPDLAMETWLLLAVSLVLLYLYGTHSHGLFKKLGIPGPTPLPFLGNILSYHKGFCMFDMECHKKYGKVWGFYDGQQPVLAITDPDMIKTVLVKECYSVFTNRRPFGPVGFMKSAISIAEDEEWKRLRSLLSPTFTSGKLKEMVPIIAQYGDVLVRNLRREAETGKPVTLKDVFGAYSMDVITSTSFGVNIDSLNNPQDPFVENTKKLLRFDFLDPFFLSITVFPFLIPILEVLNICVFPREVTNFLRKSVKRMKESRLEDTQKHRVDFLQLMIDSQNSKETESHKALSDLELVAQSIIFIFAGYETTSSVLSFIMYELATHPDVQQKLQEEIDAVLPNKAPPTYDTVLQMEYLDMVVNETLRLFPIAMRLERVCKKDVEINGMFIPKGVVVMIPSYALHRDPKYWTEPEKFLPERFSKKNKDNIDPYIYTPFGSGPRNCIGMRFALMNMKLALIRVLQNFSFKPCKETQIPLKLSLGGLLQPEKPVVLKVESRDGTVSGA
Settings: not given
With `Cc1noc(C)c1-c1ccc2ncnc(Nc3ccc(F)cc3)c2c1`, the concentration at half-maximal activity (AC50) is 15.8 µM (inconclusive).
Same read-out and setting: next, `CCOC(=O)c1c(-c2ccccc2)cn2ccccc12`: 12.6 µM (inconclusive); `Nc1nc2ccc(Cl)cc2c2nc(-c3ccco3)nn12` [CGS-15943]: 7.94 µM (inconclusive).

As usually defined, the AC50 is the concentration giving half of the maximal activity seen. The term EC50 denotes the concentration at which the effect is half-maximal. What is called CC50 is the concentration that lowers cell viability or growth by half.

Values taken from ChEMBL document CHEMBL1201862, “PubChem BioAssay data set” (2004).
